For orientation: IC50 means the midpoint of a concentration-inhibition curve.

Molecules are shown by their SMILES.

For this assay, the system named is NLRP3. The assay is described as follows: IL-1β Assay in THP1 Cells (LPS priming + nigericin, NLRP3 activation). The note with it: Homo sapiens, THP-1; THP1 cells primed with 100 ng/mL LPS, 10 μM nigericin 3 hours; IL-1β released in supernatant; read-out: IL-1b (IC50). It counts as cell-based. The procedure:
Example 10: IL-1β Assay in THP1 Cells
THP1 cells were primed with 100 ng/mL LPS in test medium (RPMI1640+GlutaMAX+25 mM HEPES+10% HI FBS+1% Pen/Strep) overnight at 37° C. and 5% CO2. Compounds were serially diluted in test medium and added to 200 000 cells/well for 1 hour at 37° C. and 5% CO2. After 1 hour, nigericin was added at 10 μM final concentration and incubated in at 37° C. and 5% CO2 for 3 hours to induce NLRP3 activation. IL-1β released from THP1 was detected in the cell supernatant by the ELLA (Simple Plex, Bio-Techne) Human IL-1β Immunoassays. The average of the positive control (LPS+nigericin) and the negative control (LPS alone) was calculated. The % inhibition of each test well was calculated by the following formula: % inhibition per well=[(average of positive control−single well signal value)/(average of positive control−average of negative control)]*100%. The compound inhibition curve was fitted by using a four-parameter logistic dose response equation: compound concentration was converted into logarithm base 10, and its concentration and % inhibition is imported into Graphpad prism software.
Take `Cc1cc(C(O)C2CCCN(C)C2)nnc1-c1ccc(C(F)(F)F)cc1CC(F)(F)F` (stereo not drawn) [Compound 21, (5-methyl-6-(2-(2,2,2-trifluoroethyl)-4-(trifluoromethyl)phenyl)pyridazin-3-yl)(1-methylpiperidin-3-yl)methanol]: the IC50 was in the range of 500 to 3000 nM. With `CCN1CCCC(C(O)c2cc(C)c(-c3ccc4cc[nH]c4c3)nn2)C1` (stereo not drawn) [Compound 12, (6-(1H-indol-6-yl)-5-methylpyridazin-3-yl) (1-ethylpiperidin-3-yl) methanol], the 50% inhibitory concentration (IC50) was less than 500 nM.

In the case of `CCN1CCCC(C(O)c2cc(C)c(-c3ccc4c(F)c[nH]c4c3)nn2)C1` (stereo not drawn) [Compound 10, (1-ethylpiperidin-3-yl)(6-(3-fluoro-1H-indol-6-yl)-5-methylpyridazin-3-yl)methanol], the IC50 was less than 500 nM.

For `CCN1CCCC(C(O)c2cc(C)c(-c3ccc4occc4c3)nn2)C1` (stereo not drawn) [Compound 17, (6-(benzofuran-5-yl)-5-methylpyridazin-3-yl)(1-ethylpiperidin-3-yl)methanol], the IC50 was less than 500 nM. The value for `CCN1CCC[C@@H]([C@@H](O)c2cc(C)c(-c3ccc(C(F)(F)F)cc3OC(F)F)nn2)C1` [Compound 33, (R)-(6-(2-(difluoromethoxy)-4-(trifluoromethyl)phenyl)-5-methylpyridazin-3-yl)((R)-1-ethylpiperidin-3-yl)methanol] was less than 500 nM; that for `Cc1cc([C@H](O)[C@@H]2CCCN(C)C2)nnc1-c1ccc(C(F)(F)F)cc1OC(F)F` [Compound 31, (R)-(6-(2-(difluoromethoxy)-4-(trifluoromethyl)phenyl)-5-methylpyridazin-3-yl)((R)-1-methylpiperidin-3-yl)methanol] was less than 500 nM.

In the case of `Cc1cc(C(O)C2CCCN(C)C2)nnc1-c1ccc2occc2c1` (stereo not drawn) [Compound 16, (6-(benzofuran-5-yl)-5-methylpyridazin-3-yl)(1-methylpiperidin-3-yl)methanol], the concentration for half-maximal inhibition (IC50) was less than 500 nM. The figure for `Cc1cc([C@H](O)[C@@H]2CCCN(C)C2)nnc1-c1ccc(C(F)(F)F)cc1` [Compound 28, (R)-(5-methyl-6-(4-(trifluoromethyl)phenyl)pyridazin-3-yl)((R)-1-methylpiperidin-3-yl)methanol] is 500 to 3000 nM; for `CCN1CCC[C@@H]([C@@H](O)c2cc(C)c(-c3ccc(C(F)(F)F)cc3)nn2)C1` [Compound 29, (R)-((R)-1-ethylpiperidin-3-yl)(5-methyl-6-(4-(trifluoromethyl)phenyl)pyridazin-3-yl)methanol] it is less than 500 nM.
